Assay [1] is described as follows: Western blot for PARP cleavage (caspase activation) and Survivin levels, HeLa. Format: cell-based, human. Particulars: 50 μg/ml, 12 hours, anti-Survivin Western blot. As to the method:
(§1) FIG. 12 illustrates S12 induction of caspase activation in HeLa cells. (A) HeLa cells were incubated with DMSO (control), S12, Taxol, nocodazole (Noco), or etoposide (Etop) for 12 hours. The cell lysates were analyzed by Western blot using the anti-PARP antibody (top panel), the anti-α-tubulin antibody (middle panel), or the anti-Survivin antibody (bottom panel). (B) S12 causes cell death in a cell cycle dependent manner. HeLa cells, either unsynchronized or synchronized by thymidine treatment were incubated either with S12 or DMSO. Cell death was quantitated by trypan blue exclusion assay.
(§2) We examined whether S12 treatment leads to apoptosis. HeLa cells were incubated with S12 at the concentration of 50 μg/ml or with DMSO alone for 12 hours. To compare the effect with that of other therapeutic agents, HeLa cells were also treated with Taxol, nocodazole, or etoposide, respectively. The cell lysates were collected and subjected to Western blot analysis using an anti-PARP antibody. […] We also re-probed the blot with an anti-Survivin antibody. […] These observations, combined with the earlier findings, indicate that the Survivin-targeting molecule S12 can block mitosis and cause apoptosis.

A further assay has as its system PARP. The assay is described as above. In kind it is cell-based, human. As to conditions: 12 hours. As to the method: as §1, §2
A further assay relates to HCT116(p53−/−) cells. Nature of the assay: MTT viability assay, HCT116(p53−/−). Format: cell-based. Particulars: 48 hours. How it is done:
FIG. 4 illustrates the effects of S12 on proliferation of p53-positive and p53-negative cancer cells. (A) HCT116(p53+/+) or HCT116(p53−/−) cells were treated with DMSO or S12 at the indicated concentrations for 48 hours. The percentage of viable cells was evaluated by MTT assay.
Thus, inhibition of cell proliferation by S12 is independent of p53 status.
A general note: Tetrazolium assays rely on reduction of a dye to a coloured formazan, in cell work by metabolically active cells.

The subject of assay [2] is HeLa cells. In words: Immunofluorescence microscopy of mitosis and spindle formation, HeLa. In kind it is cell-based, human. As to the method: FIG. 8 illustrates the effect of S2 on mitotic spindle formation. HeLa cells were treated with S2 or DMSO for 15 hours. The cells were then fixed and subjected to immunostaining using the anti-β-Tubulin (green) and the anti-Survivin (red). Representative fluorescent microscopy images are shown. Note that short microtubule bundles form in S2-treated cells.
FIG. 9 illustrates the effect of S12 on mitosis. (A) HeLa cells were treated with S12, S2 or DMSO for 15 hours. The cells were then fixed and subjected to immunostaining using antibodies specific for Aurora B (green) and Survivin (red). DNA was stained with DAPI. Chromosome misalignment is indicated with the arrowheads. (B) Percentage of S12-treated cells in mitosis, in metaphase, in anaphase/telophase, or with misaligned chromosomes. (C) Percentage of S2-treated cells in mitosis, in metaphase, in anaphase/telophase, or with misaligned chromosomes. (D) HeLa cells were treated with S12 (10 μg/ml) or DMSO (control) for 15 hours. Cells were examined by PI staining of DNA content by FACS analysis.
FIG. 17 illustrates (A) FACS analysis of DNA content of HeLa cells treated with SBDO3. Note the accumulation of cells at the G2/M stage. Cell death was also observed (sub-G1 population); (B) Immuno-fluorescence microscopy analysis of cell treated with SBDO3. Note that the microtubule bundles of the mitotic spindle are disorganized. The chromosomes are not aligned properly and cells cannot go through metaphase.
FIG. 19 illustrates immunofluorescence studies of Survivin localization. (A) Untreated HeLa cells were subjected to immunostaining using a monoclonal anti-beta-Tubulin antibody (green) or a polyclonal anti-Survivin antibody (red). Images of cells at various stages of mitosis are shown. (B) HeLa cells were treated with S2 for 6 hours. Cells were immunostained with anti-beta-Tubulin antibody (green) or a polyclonal anti-survivin antibody (red). Note that localization of Survivin to the midbody was not affected by S2.
The effect of S2 and its analogs on the progression of cell cycle was examined by immunofluorescence microscopy. HeLa cells were plated on coverglass and treated with the Survivin-targeting compound S2 (10 μg/ml) or with the solvent DMSO alone for 15 hours. Cells were stained with the anti-β-Tubulin antibody (green) and anti-Survivin antibody (red). S2 can block cell division at the early stage of mitosis (FIG. 8). […] The microtubules in this case are very short, with one end attached to the centrosome and the other end to the kinetochore of the chromosomes (FIG. 8).
We extended the immunofluorescence studies to define the cell stage in the cells that were arrested by S2 or its analogs. Cells were also stained with anti-Aurora B antibody or anti-Survivin antibody in order to determine whether the localization of Survivin or Aurora B proteins are changed by these small molecules. Upon S2 or S12 treatment, we observed that cells accumulate in a stage with condensed chromosomes but without proper alignment of chromosomes on the mitotic plate (FIG. 9). The percentage of cells that progress to metaphase or beyond was reduced by S2 or S12 treatment (FIG. 9). […] Moreover, localization of Survivin to the midbody was also not affected.
Effects of the Survivin-targeting compound S12 on cell cycle progression was examined by immunofluorescence microscopy. HeLa cells were plated on coverglass and treated with S12 (40 μM) or with the solvent DMSO alone for 15 hours. […]

Assay [3] concerns HeLa cells. In words: Trypan blue exclusion cell death, synchronized vs unsynchronized HeLa. Format: cell-based, human. As to the method: as §1
We wanted to determine if the Survivin-targeting compounds induce cell death during mitosis but could not affect the phenotype or influence in other stages of the cell cycle. To this end, we blocked HeLa cells in the S phase by thymidine treatment and examined whether the cells were susceptible to cell death induced by S12. […] Thus, the current data support the notion that S12 induced death of cells is a consequence of mitotic arrest rather than general cytotoxicity and indicate a unique cell cycle specific functionality of Survivin in this process.

Turning to `O=C(CC1(O)C(=O)Nc2ccc(Br)cc21)c1ccc2c(c1)OCO2` (centres unmarked) [S12], the “overall Survivin levels” value in assay [1] is listed as “did not significantly affect”. Further, in the assay with PARP (50 μg/ml, Western blot), the “cleavage of PARP (caspase activation)” value is reported as “detected”. For the same molecule, the “apoptosis induction compared with other agents” value in the assay on PARP (at the concentrations employed) is given as “more potent in inducing apoptosis than Taxol, nocodazole, or etoposide”. Further, in the assay on HCT116(p53−/−) cells, the “reduction of cell viability” value is recorded as “equally effective at reducing cell viability”. The “percentage of cells that progress to metaphase or beyond” value in the assay with HeLa cells [2] (15 hours) is on record as “reduced”. Besides, the “formation of the mitotic spindle” value with HeLa cells [2] (15 hours, immunofluorescence) is listed as “can cause defects in formation of the mitotic spindle”. For the same molecule, in the assay with HeLa cells [2] (immunofluorescence), the “localization of Survivin or Aurora B to the kinetochore” value is on record as “did not alter”, the “localization of Survivin to the midbody” value was “not affected” and the “mitotic stage at which cells accumulate” value is “arrested by S12 in an early stage of mitosis”. The “cell death of S phase-arrested cells” value with HeLa cells [3] (HeLa blocked in S phase by thymidine) is recorded as “insensitive”. For the same molecule, the “cell death of unsynchronized cells” value in the assay with HeLa cells [3] (unsynchronized HeLa) is listed as “underwent apoptosis”.

The record behind these values is patent US8710068B2, “Method of treating cancer using a survivin inhibitor” (The Trustees Of The University Of Pennsylvania, priority 2009, dated 2014).
